For orientation: IC50 means the point on the concentration scale where inhibition reaches its midpoint.

Drawing on patent US8901118B2, “Compounds and methods for kinase modulation, and indications therefor” (Plexxikon Inc., priority 2010, dated 2014), this text covers IC50 for 14 molecules.

The target in the assay is TrkA kinase (Homo sapiens, UniProt P04629). Put plainly: TrkA kinase biochemical activity assay (AlphaScreen). The following applies: 100 μM ATP; read-out: Biochemical Inhibition IC50 TrkA. In a few lines:
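IC50 values come from AlphaScreen PY20/streptavidin bead signal versus compound concentration. Kinase reaction: 1 ng/well TrkA, 100 μM ATP, 30 nM biotin-(E4Y)10 substrate, Mn2+-containing Hepes buffer pH 7.5, 5% DMSO, 40 min, room temperature; TrkC assayed by the same approach.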

Chain of TrkA kinase (P04629 33-796): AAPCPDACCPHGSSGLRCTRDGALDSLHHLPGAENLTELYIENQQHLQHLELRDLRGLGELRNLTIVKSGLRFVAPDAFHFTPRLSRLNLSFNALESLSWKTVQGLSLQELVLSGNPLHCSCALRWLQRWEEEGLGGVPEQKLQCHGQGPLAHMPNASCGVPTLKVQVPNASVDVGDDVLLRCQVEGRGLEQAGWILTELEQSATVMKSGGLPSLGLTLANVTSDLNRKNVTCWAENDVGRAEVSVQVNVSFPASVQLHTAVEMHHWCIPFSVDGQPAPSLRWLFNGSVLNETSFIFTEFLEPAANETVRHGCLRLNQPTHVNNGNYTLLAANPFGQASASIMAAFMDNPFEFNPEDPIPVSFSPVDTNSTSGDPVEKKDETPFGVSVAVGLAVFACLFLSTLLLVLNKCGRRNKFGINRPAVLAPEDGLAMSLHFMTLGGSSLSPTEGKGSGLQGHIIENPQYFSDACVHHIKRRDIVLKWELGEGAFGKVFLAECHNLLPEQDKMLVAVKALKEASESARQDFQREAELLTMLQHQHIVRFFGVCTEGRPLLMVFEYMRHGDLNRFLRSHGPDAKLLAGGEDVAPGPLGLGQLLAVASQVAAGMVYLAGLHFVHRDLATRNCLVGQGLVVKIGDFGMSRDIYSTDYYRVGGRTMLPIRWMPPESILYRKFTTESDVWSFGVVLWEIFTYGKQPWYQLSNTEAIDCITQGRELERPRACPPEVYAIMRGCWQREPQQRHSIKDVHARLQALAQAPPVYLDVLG

Regarding `COc1ccccc1Nc1ncc(Cc2c[nH]c3ncc(Cl)cc23)cn1` [Compound P-3016, [5-(5-Chloro-1H-pyrrolo[2,3-b]pyridin-3-ylmethyl)-pyrimidin-2-yl]-(2-methoxy-phenyl)-amine], the IC50 was above 1000 nM.

For `Fc1cccc(Nc2ncc(Cc3c[nH]c4ncc(Cl)cc34)cn2)c1` [Compound P-3017, [5-(5-Chloro-1H-pyrrolo[2,3-b]pyridin-3-ylmethyl)-pyrimidin-2-yl]-(3-fluoro-phenyl)-amine], the IC50 was above 1000 nM.

For `COc1ccc(Nc2ncc(Cc3c[nH]c4ncc(C)cc34)cn2)cn1` [Compound P-3020, (6-Methoxy-pyridin-3-yl)-[5-(5-methyl-1H-pyrrolo[2,3-b]pyridin-3-ylmethyl)-pyrimidin-2-yl]-amine], the IC50 is below 100 nM.

Regarding `COc1ccc(Nc2ncc(Cc3c[nH]c4ncc(C)cc34)cn2)cc1` [Compound P-3021, (4-Methoxy-phenyl)-[5-(5-methyl-1H-pyrrolo[2,3-b]pyridin-3-ylmethyl)-pyrimidin-2-yl]-amine], the IC50 is below 100 nM.

Regarding `COc1cc(Nc2ncc(Cc3c[nH]c4ncc(C)cc34)cn2)ccc1F` [Compound P-3022, (4-Fluoro-3-methoxy-phenyl)-[5-(5-methyl-1H-pyrrolo[2,3-b]pyridin-3-ylmethyl)-pyrimidin-2-yl]-amine], the IC50 is below 1000 nM.

`CCCOc1ccc(Nc2ncc(Cc3c[nH]c4ncc(C)cc34)cn2)cc1` [Compound P-3024, [5-(5-Methyl-1H-pyrrolo[2,3-b]pyridin-3-ylmethyl)-pyrimidin-2-yl]-(4-propoxy-phenyl)-amine]: the IC50 was below 1000 nM.

For the molecule `CCc1ccc(Nc2ncc(Cc3c[nH]c4ncc(C)cc34)cn2)cc1` [Compound P-3025, (4-Ethyl-phenyl)-[5-(5-methyl-1H-pyrrolo[2,3-b]pyridin-3-ylmethyl)-pyrimidin-2-yl]-amine], the IC50 is below 100 nM.

With `CCOc1ccc(Nc2ncc(Cc3c[nH]c4ncc(C)cc34)cn2)cc1` [Compound P-3026, (4-Ethoxy-phenyl)-[5-(5-methyl-1H-pyrrolo[2,3-b]pyridin-3-ylmethyl)-pyrimidin-2-yl]-amine], the half-inhibitory concentration (IC50) is above 1000 nM.

Regarding `CCOc1ccc(Nc2ncc(Cc3c[nH]c4ncc(C)cc34)cn2)cn1` [Compound P-3027, (6-Ethoxy-pyridin-3-yl)-[5-(5-methyl-1H-pyrrolo[2,3-b]pyridin-3-ylmethyl)-pyrimidin-2-yl]-amine], the concentration for half-maximal inhibition (IC50) was below 1000 nM.

With `Cc1cnc2[nH]cc(Cc3cnc(Nc4cc(-c5ccc(F)cc5)n[nH]4)nc3)c2c1` [Compound P-3028, [5-(4-Fluoro-phenyl)-2H-pyrazol-3-yl]-[5-(5-methyl-1H-pyrrolo[2,3-b]pyridin-3-ylmethyl)-pyrimidin-2-yl]-amine], the IC50 is below 100 nM.

In the case of `Cc1cnc2[nH]cc(Cc3cnc(Nc4cc(C(C)(C)C)n[nH]4)nc3)c2c1` [Compound P-3029, (5-tert-Butyl-2H-pyrazol-3-yl)-[5-(5-methyl-1H-pyrrolo[2,3-b]pyridin-3-ylmethyl)-pyrimidin-2-yl]-amine], the half-maximal inhibitory concentration (IC50) is below 1000 nM.

In the case of `Cc1cnc2[nH]cc(Cc3cnc(Nc4ccc(C(C)(C)C)cc4)nc3)c2c1` [Compound P-3030, (4-tert-Butyl-phenyl)-[5-(5-methyl-1H-pyrrolo[2,3-b]pyridin-3-ylmethyl)-pyrimidin-2-yl]-amine amine], the IC50 is below 10 nM.

For the molecule `Cc1cnc2[nH]cc(Cc3cnc(Nc4ccc(C(O)(C(F)(F)F)C(F)(F)F)cc4)nc3)c2c1` [Compound P-3031, 1,1,1,3,3,3-Hexafluoro-2-{4-[5-(5-methyl-1H-pyrrolo[2,3-b]pyridin-3-ylmethyl)-pyrimidin-2-ylamino]-phenyl}-propan-2-ol], the IC50 is below 100 nM.

As for `Cc1cnc2[nH]cc(Cc3cnc(Nc4cc(C5CC5)n[nH]4)nc3)c2c1` [Compound P-3032, (5-Cyclopropyl-2H-pyrazol-3-yl)-[5-(5-methyl-1H-pyrrolo[2,3-b]pyridin-3-ylmethyl)-pyrimidin-2-yl]-amine], the IC50 is above 1000 nM.
